Patent publication US12336981B2, “Compounds and compositions for the inhibition of NAMPT” (Valo Health, Inc., priority 2010, dated 2025)
Like-named read-outs stand apart in the source and are kept apart here.

Experiments:
A2780 cells = test: In-vitro cell proliferation assay (SRB), A2780 cells; type: cell-based; conditions: Homo sapiens, A2780, 72 h, A2780 cells, 72 hours, read-out: A2780 IC50
How it was run: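 Cells were plated overnight at 37° C., 5% CO2, then exposed to serially diluted compounds (0.1% DMSO final) for 72 hours. Viable cells were measured by sulforhodamine B staining after TCA fixation, read at 570 nm; media-only background was subtracted before % inhibition was calculated.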

NAMPT = biological target: T1, NAMPT (Homo sapiens, UniProt P43490); test: Biochemical inhibition assay: NAMPT enzymatic reaction, NMN quantified by mass spectrometry; conditions: read-out: Biochem IC50
T1 construct: His tag; host or cells: E. coli
T1 sequence (P43490 whole entry): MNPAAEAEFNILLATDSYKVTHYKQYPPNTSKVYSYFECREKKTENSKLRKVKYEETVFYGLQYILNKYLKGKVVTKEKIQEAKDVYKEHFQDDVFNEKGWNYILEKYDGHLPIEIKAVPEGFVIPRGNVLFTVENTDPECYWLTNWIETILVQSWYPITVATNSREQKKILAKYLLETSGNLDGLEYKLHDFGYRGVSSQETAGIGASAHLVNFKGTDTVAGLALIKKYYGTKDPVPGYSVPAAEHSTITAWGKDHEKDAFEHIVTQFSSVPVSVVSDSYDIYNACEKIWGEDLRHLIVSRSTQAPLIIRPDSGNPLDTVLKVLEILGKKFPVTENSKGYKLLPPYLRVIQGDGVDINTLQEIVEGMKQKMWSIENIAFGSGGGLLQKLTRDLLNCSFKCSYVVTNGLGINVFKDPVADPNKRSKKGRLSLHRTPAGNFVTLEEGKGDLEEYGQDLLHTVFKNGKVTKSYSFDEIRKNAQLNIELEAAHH
How it was run: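 Inhibition of E. coli-expressed His-tagged human NAMPT, measured as NMN formation by mass spectrometry after a 30 min room-temperature reaction containing 1 μM NAM, 100 μM PRPP and 2.5 mM ATP.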

Row | SMILES | IC50 (A2780 cells; SRB) [nM] | IC50 (NAMPT; NAMPT enzymatic assay) [nM] | IC50 (NAMPT; NAMPT enzymatic reaction) [nM] | IC50 (A2780 cells; SRB assay) [nM]
1 | Cc1cc(C)c(S(=O)(=O)c2ccc(CNC(=O)c3cc4cnccc4[nH]3)cc2)c(C)c1 [N-({4-[(2,4,6-trimethylbenzene)sulfonyl]phenyl}methyl)-1H-pyrrolo[3,2-c]pyridine-2-carboxamide] | 46 | 76 |  | 
2 | O=C(NCc1ccc(S(=O)(=O)c2ccc(F)cc2F)cc1)c1ccc2nccn2c1 [N-({4-[(2,4-difluorobenzene)sulfonyl]phenyl}methyl)imidazo[1,2-a]pyridine-6-carboxamide] | 28.1 |  | 28.3 | 
3 | COc1ccc(S(=O)(=O)c2ccc(CNC(=O)c3cc4cnccc4[nH]3)cc2)c(OC)c1 [N-({4-[(2,4-dimethoxybenzene)sulfonyl]phenyl}methyl)-1H-pyrrolo[3,2-c]pyridine-2-carboxamide] | 7 | 27 |  | 
4 | COc1ccc(S(=O)(=O)c2ccc(CNC(=O)c3ccc4nccn4c3)cc2)c(OC)c1 [N-({4-[(2,4-dimethoxybenzene)sulfonyl]phenyl}methyl)imidazo[1,2-a]pyridine-6-carboxamide] | 15.1 |  | 58.2 | 
5 | COc1ccc(S(=O)(=O)c2ccc(CNC(=O)c3cc4ccncc4s3)cc2)c(OC)c1 [N-({4-[(2,4-dimethoxybenzene)sulfonyl]phenyl}methyl)thieno[2,3-c]pyridine-2-carboxamide] | 1.6 |  | 4.5 | 
6 | COc1ccc(NS(=O)(=O)c2ccc(CNC(=O)c3cc4cnccc4[nH]3)cc2)c(OC)c1 [N-({4-[(2,4-dimethoxyphenyl)sulfamoyl]phenyl}methyl)-1H-pyrrolo[3,2-c]pyridine-2-carboxamide] | 6.9 | 5.8 |  | 
7 | Cc1ccc(S(=O)(=O)c2ccc(CNC(=O)c3cnc4[nH]ncc4c3)cc2)c(C)c1 [N-({4-[(2,4-dimethylbenzene)sulfonyl]phenyl}methyl)-1H-pyrazolo[3,4-b]pyridine-5-carboxamide] | 71.6 |  | 61.2 | 
8 | Cc1ccc(S(=O)(=O)c2ccc(CNC(=O)c3cc4cnccc4[nH]3)cc2)c(C)c1 [N-({4-[(2,4-dimethylbenzene)sulfonyl]phenyl}methyl)-1H-pyrrolo[3,2-c]pyridine-2-carboxamide] | 12 | 21 |  | 
9 | Cc1ccc(S(=O)(=O)c2ccc(CNC(=O)c3ccc4nccn4c3)cc2)c(C)c1 [N-({4-[(2,4-dimethylbenzene)sulfonyl]phenyl}methyl)imidazo[1,2-a]pyridine-6-carboxamide] | 32.1 |  | 21.6 | 
10 | Cc1ccc(S(=O)(=O)c2ccc(CNC(=O)c3cc4ccncc4s3)cc2)c(C)c1 [N-({4-[(2,4-dimethylbenzene)sulfonyl]phenyl}methyl)thieno[2,3-c]pyridine-2-carboxamide] | 22.2 | 12 |  | 
11 | COc1ccc(OC)c(S(=O)(=O)c2ccc(CNC(=O)c3cnc4[nH]ncc4c3)cc2)c1 [N-({4-[(2,5-dimethoxybenzene)sulfonyl]phenyl}methyl)-1H-pyrazolo[3,4-b]pyridine-5-carboxamide] | 24.8 |  | 39.8 | 
12 | COc1ccc(OC)c(S(=O)(=O)c2ccc(CNC(=O)c3cc4cnccc4[nH]3)cc2)c1 [N-({4-[(2,5-dimethoxybenzene)sulfonyl]phenyl}methyl)-1H-pyrrolo[3,2-c]pyridine-2-carboxamide] | 6 | 17 |  | 
13 | COc1ccc(OC)c(S(=O)(=O)c2ccc(CNC(=O)c3ccc4nccn4c3)cc2)c1 [N-({4-[(2,5-dimethoxybenzene)sulfonyl]phenyl}methyl)imidazo[1,2-a]pyridine-6-carboxamide] | 12.8 |  | 20.2 | 
14 | COc1ccc(OC)c(S(=O)(=O)c2ccc(CNC(=O)c3cnc4nccn4c3)cc2)c1 [N-({4-[(2,5-dimethoxybenzene)sulfonyl]phenyl}methyl)imidazo[1,2-a]pyrimidine-6-carboxamide] | 45.7 |  | 6.9 | 
15 | COc1ccc(OC)c(S(=O)(=O)c2ccc(CNC(=O)c3cc4ccncc4s3)cc2)c1 [N-({4-[(2,5-dimethoxybenzene)sulfonyl]phenyl}methyl)thieno[2,3-c]pyridine-2-carboxamide] | 2.3 | 4 |  | 
16 | Cc1ccc(C)c(S(=O)(=O)c2ccc(CNC(=O)c3cnc4[nH]ncc4c3)cc2)c1 [N-({4-[(2,5-dimethylbenzene)sulfonyl]phenyl}methyl)-1H-pyrazolo[3,4-b]pyridine-5-carboxamide] | 17.2 |  | 20.9 | 
17 | Cc1ccc(C)c(S(=O)(=O)c2ccc(CNC(=O)c3cc4cnccc4[nH]3)cc2)c1 [N-({4-[(2,5-dimethylbenzene)sulfonyl]phenyl}methyl)-1H-pyrrolo[3,2-c]pyridine-2-carboxamide] |  |  | 11 | 14
18 | Cc1ccc(C)c(S(=O)(=O)c2ccc(CNC(=O)c3ccc4nccn4c3)cc2)c1 [N-({4-[(2,5-dimethylbenzene)sulfonyl]phenyl}methyl)imidazo[1,2-a]pyridine-6-carboxamide] | 15.4 |  | 29.3 | 

Row | SMILES | IC50 (A2780 cells; SRB) [nM] | IC50 (NAMPT; NAMPT enzymatic assay) [nM] | IC50 (NAMPT; NAMPT enzymatic reaction) [nM] | IC50 (A2780 cells; SRB assay) [nM]
19 | Cc1ccc(C)c(S(=O)(=O)c2ccc(CNC(=O)c3cc4ccncc4s3)cc2)c1 [N-({4-[(2,5-dimethylbenzene)sulfonyl]phenyl}methyl)thieno[2,3-c]pyridine-2-carboxamide] |  |  | 11 | 8.6
20 | Cc1ccc(Cl)c(S(=O)(=O)c2ccc(CNC(=O)c3cc4ccncc4s3)cc2)c1Cl [N-({4-[(2,6-dichloro-3-methylbenzene)sulfonyl]phenyl}methyl)thieno[2,3-c]pyridine-2-carboxamide] | 8.2 |  | 4.4 | 
21 | COc1cc(C)cc(OC)c1S(=O)(=O)c1ccc(CNC(=O)c2cc3cnccc3[nH]2)cc1 [N-({4-[(2,6-dimethoxy-4-methylbenzene)sulfonyl]phenyl}methyl)-1H-pyrrolo[3,2-c]pyridine-2-carboxamide] |  |  | 16 | 10
22 | COc1cc(C)cc(OC)c1S(=O)(=O)c1ccc(CNC(=O)c2cc3ccncc3o2)cc1 [N-({4-[(2,6-dimethoxy-4-methylbenzene)sulfonyl]phenyl}methyl)furo[2,3-c]pyridine-2-carboxamide] | 23 |  | 5 | 
23 | COc1cc(C)cc(OC)c1S(=O)(=O)c1ccc(CNC(=O)c2cc3ccncc3s2)cc1 [N-({4-[(2,6-dimethoxy-4-methylbenzene)sulfonyl]phenyl}methyl)thieno[2,3-c]pyridine-2-carboxamide] |  |  | 7 | 3
24 | Cc1cccc(C)c1S(=O)(=O)c1ccc(CNC(=O)c2cnc3[nH]ncc3c2)cc1 [N-({4-[(2,6-dimethylbenzene)sulfonyl]phenyl}methyl)-1H-pyrazolo[3,4-b]pyridine-5-carboxamide] | 100 to 1000 |  | 159 | 
25 | CC(=O)c1ccccc1S(=O)(=O)c1ccc(CNC(=O)c2cnc3[nH]ncc3c2)cc1 [N-({4-[(2-acetylbenzene)sulfonyl]phenyl}methyl)-1H-pyrazolo[3,4-b]pyridine-5-carboxamide] | 11.4 |  | 3.6 | 
26 | CC(=O)c1ccccc1S(=O)(=O)c1ccc(CNC(=O)c2cc3cnccc3[nH]2)cc1 [N-({4-[(2-acetylbenzene)sulfonyl]phenyl}methyl)-1H-pyrrolo[3,2-c]pyridine-2-carboxamide] |  |  | 6 | 4
27 | CC(=O)c1ccccc1S(=O)(=O)c1ccc(CNC(=O)c2cc3ccncc3o2)cc1 [N-({4-[(2-acetylbenzene)sulfonyl]phenyl}methyl)furo[2,3-c]pyridine-2-carboxamide] | 6.5 |  | 5.7 | 
28 | CC(=O)c1ccccc1S(=O)(=O)c1ccc(CNC(=O)c2cc3ccncc3s2)cc1 [N-({4-[(2-acetylbenzene)sulfonyl]phenyl}methyl)thieno[2,3-c]pyridine-2-carboxamide] |  |  | 1 | 1
29 | CC(=O)c1ccccc1NS(=O)(=O)c1ccc(CNC(=O)c2cc3cnccc3[nH]2)cc1 [N-({4-[(2-acetylphenyl)sulfamoyl]phenyl}methyl)-1H-pyrrolo[3,2-c]pyridine-2-carboxamide] |  |  | 5 | 5
30 | CCCCOc1cc(F)ccc1S(=O)(=O)c1ccc(CNC(=O)c2cnc3[nH]ncc3c2)cc1 [N-({4-[(2-butoxy-4-fluorobenzene)sulfonyl]phenyl}methyl)-1H-pyrazolo[3,4-b]pyridine-5-carboxamide] | 100 to 1000 |  | 176 | 
31 | CCCCOc1ccc(Cl)cc1S(=O)(=O)c1ccc(CNC(=O)c2cnc3[nH]ncc3c2)cc1 [N-({4-[(2-butoxy-5-chlorobenzene)sulfonyl]phenyl}methyl)-1H-pyrazolo[3,4-b]pyridine-5-carboxamide] | 73.7 |  | 117 | 
32 | COc1ccc(S(=O)(=O)c2ccc(CNC(=O)c3cnc4[nH]ncc4c3)cc2)c(Cl)c1 [N-({4-[(2-chloro-4-methoxybenzene)sulfonyl]phenyl}methyl)-1H-pyrazolo[3,4-b]pyridine-5-carboxamide] | 87.7 |  | 51.6 | 
33 | Cc1ccc(S(=O)(=O)c2ccc(CNC(=O)c3cnc4[nH]ncc4c3)cc2)c(Cl)c1 [N-({4-[(2-chloro-4-methylbenzene)sulfonyl]phenyl}methyl)-1H-pyrazolo[3,4-b]pyridine-5-carboxamide] | 2.78 |  | 5 | 
34 | COc1ccc(Cl)c(S(=O)(=O)c2ccc(CNC(=O)c3cnc4[nH]ncc4c3)cc2)c1 [N-({4-[(2-chloro-5-methoxybenzene)sulfonyl]phenyl}methyl)-1H-pyrazolo[3,4-b]pyridine-5-carboxamide] | 66.8 |  | 24.7 | 
35 | COc1cccc(Cl)c1S(=O)(=O)c1ccc(CNC(=O)c2cc3cnccc3[nH]2)cc1 [N-({4-[(2-chloro-6-methoxybenzene)sulfonyl]phenyl}methyl)-1H-pyrrolo[3,2-c]pyridine-2-carboxamide] |  |  | 13 | 3
